Results taken from patent US20150087722A1, “TREATMENT FOR BREAST TUMOR CELL METASTASIS” (China Medical University, priority 2012, published 2015).

System: MDA-MB-231 inoculated nude mice
Test: nude mice xenograft tumor model
Type: in vivo, nude mice of BALB/c-nu species
Conditions: about 0.75 mg/Kg injected everyday
Experimental: The in vivo experiment was performed in a nude mice xenograft tumor model. The experimental animals were nude mice of BALB/c-nu species commercially obtained from the National Laboratory Animal Center (NLAC). The nude mice were raise in a germ-free box and the light application time was 7:00-19:00. Filtered air, sterilized water and feed were supplied to and naturally eaten by the nude mice. Female nude mice which matured in 8-10 weeks were used to perform the experiment. The breast tumor cell (2×10^6/100 μl) was injected into one side of each back part of 60 nude mice in a hypodermic injection manner. After about 10 days 1-3 mm tumor was grown on each back of the nude mice, the nude mice were randomly divided into 4 groups. Three groups of nude mice were fed with the active ingredient Antrodia camphorata in different doses. The tumor growth was observed and photographed every day. The tumor volume was measured every three days. The volume was calculated according to the equation provided by Osborne et al in 1987. The experimental animals were divided into the control group (not treated), the solvent group (only physiological saline was injected) and a group injected with the compound II (the dose was about 0.75 mg/Kg). The injection was performed everyday, and the animals were fed in normal conditions and photographed for record, so as to compare the tumor growth condition of experimental animals in each group.

## COC1=C(OC)C(=O)C(C)=C(C)C1=O [compound II]
  tumor a period after injection: completely disappears
  tumor volume versus control group: obviously smaller
Control 0.455±0.328
  tumor weight: 0.039±0.028
